According to patent publication US20100160445A1, “Synergistic Mixtures of OPP and DGH” (priority 2002, published 2010):
Where a name gives a salt, the structure may show the parent alone. Read-outs that look alike come from different tables or passages of the source.

System: mixed inoculum of bacteria
Experiment: MIC and synergy (K) in nutrient broth, microtiter plates
Format: cell-based
Protocol: Stock solutions of each product were prepared in sterile distilled water. Synergism was measured by the method first described by F. C. Kull, P. C. Eisman, H. D. Sylwestrowicz and R. L. Mayer in Applied Microbiology, 9, 538-41 ([…]). This manner of determining synergism has been widely used and is industrially acceptable. It is believed that the specified method is sufficient in explaining the process. However for a further description, reference can be made to U.S. Pat. No. 3,231,509 and its file history, where this type of data was considered acceptable.
• 1. Incubator capable of maintaining a variable temperature range (25-45 C) • 2. Samples of each biocide or test compound to be examined • 3. Microtiter plates—96 well with lid, sterile. • 4. 8-12 channel micropipetting device capable of pipetting 0-250 ul volumes • 5. Micropipette tips capable of holding up to 250 ul volumes • 6. Sterile microbiological culture broth. Trypticase Soy Broth (TSB) or Nutrient Broth (NB) is recommended for bacteria and Sabouraud Maltose Broth (SMB) or Sabouraud Dextrose Broth (SDB) is recommended for yeasts and molds. In the case of this particular study the microbiological culture medium was Nutrient Broth at pH 7.0, 8.0 and 9.0. • 7. Pure cultures of microorganisms of choice grown on appropriate agar medium • 8. Sterile distilled water • 9. 100 mL volumetric flasks (one for each biocide to be tested) • 10. Sterile 10 mL tubes of Phosphate buffer (Butterfield's buffer pH 7.2+/−0.2). Contains purified water, monobasic potassium phosphate and sodium hydroxide for pH adjustment. • 11. Sterile cotton swabs • 12. 0.5 MacFarland Turbidity Standard
The day before testing, perform a streak plate of each organism to be tested on an appropriate agar medium (Trypticase Soy Agar). Organisms tested in this study were: Wild strain bacteria isolated from previously contaminated industrial systems and which were identified as: Pseudomonas sp., Escherchia coli , Enterobacter sp., Alcaligenes sp. and Alcaligenes faecalis. On the day of the test, use a sterile cotton swab to harvest some of the growth. Place swab into a tube containing 10 mL sterile phosphate buffer. Compare and adjust the turbidity of the organisms in the tube to 1×10^8 cfu/mL using a 0.5 MacFarland Turbidity Standard. Dilute the 10 mL tube into 90 mL of sterile 2× nutrient broth at pH 7.0, 8.0 and 9.0.
1. Design the layout of the microtiter plates based on the number of organisms to test and the number of biocides and desired concentrations to test. A separate microtiter plate is required for testing each biocide alone, in addition to the combination microtiter plate. 2. Prepare a working stock solution of each biocide to be tested. For the combination microtiter plate, the working stock solution of Biocide A will be 8× the concentration desired in the first well of the combination microtiter plate. The working stock solution of Biocide B will be 4× the concentration desired in the first well of the combination microtiter plate. For the alone microtiter plates, the working stock solutions of Biocide A and Biocide B will both be 4× the concentration desired in the first well of the single biocide microtiter plates.
Dodecylguanidine hydrochloride: (For combination plates) A solution of this product which is 35% active, was made as follows: […]=8000 ppm active=8000/0.35=22,857 ppm, 2.28 g into 100 mL sterile diH2O. Levels to test are: 1000 ppm, 500 ppm, 250 ppm, 125 ppm, 62.5 ppm, 31.2 ppm, 15.6 ppm, 7.8 ppm, 3.9 ppm, 1.95 ppm
Ortho-PhenylPhenol: (For combination plates) Make a solution of this product which is 99% active, 4×125=500 ppm active=500/0.99=505 ppm, 0.05 g into 100 mL MeOH and sterile diH2O. Level to test is 125 ppm.
3. Place 50 ul of sterile distilled water in all of the rows in columns 1 through 10, and 100 ul of sterile distilled water in all of the rows in columns 11 and 12 of the 96 well combination microtiter plate. […]

Q: How did the MIC (pH 7, read-out: MIC, biocide alone) turn out when `CCCCCCCCCCCCNC(=N)N` [DGH, Dodecylguanidine Hydrochloride] was run?
A: 62.5 µg/mL

Q: And the “Synergy Index” value (pH 7.0, 62.5 ppm DGH alone (100:0))?
A: 1.00

Q: And the MIC (pH 8, read-out: MIC, biocide alone)?
A: 15.6 µg/mL

Q: What about the “Synergy Index” value (pH 8.0, 15.6 ppm DGH alone (100:0)) of the same compound?
A: 1.00

Q: And the MIC (pH 9, read-out: MIC, biocide alone)?
A: 15.6 µg/mL

Q: What about the “Synergy Index” value (pH 9.0, 15.6 ppm DGH alone (100:0)) of the same compound?
A: 1.00
